Assay [1] has as its target TNKS2 (Homo sapiens (Human), UniProt Q9H2K2). Kind of assay: Biochemical IC50 TNKS2. The text has this:
(§1) XLfit (idbs) was used to determine the IC50-values in inhibition experiments. The following formula was chosen to fit the data points (Langmuir Binding Isotherm): fit=((A+(B*x))+4(C−B)*(1−exp((−1*D)*x)))/D)), res=(y−fit)

Assay [2] deals with HEK293. Kind of assay: Cellular IC50 HEK293. The following applies: Homo sapiens, read-out: Cellular IC50 HEK293. The assay is classed as cell-based.
Description: as §1

[3] abbreviates: read-out: Biochemical IC50 TNKS2.

Structures are written as SMILES. Like-named read-outs stand apart in the source and are kept apart here.

TNKS2, sequence (Q9H2K2 whole entry): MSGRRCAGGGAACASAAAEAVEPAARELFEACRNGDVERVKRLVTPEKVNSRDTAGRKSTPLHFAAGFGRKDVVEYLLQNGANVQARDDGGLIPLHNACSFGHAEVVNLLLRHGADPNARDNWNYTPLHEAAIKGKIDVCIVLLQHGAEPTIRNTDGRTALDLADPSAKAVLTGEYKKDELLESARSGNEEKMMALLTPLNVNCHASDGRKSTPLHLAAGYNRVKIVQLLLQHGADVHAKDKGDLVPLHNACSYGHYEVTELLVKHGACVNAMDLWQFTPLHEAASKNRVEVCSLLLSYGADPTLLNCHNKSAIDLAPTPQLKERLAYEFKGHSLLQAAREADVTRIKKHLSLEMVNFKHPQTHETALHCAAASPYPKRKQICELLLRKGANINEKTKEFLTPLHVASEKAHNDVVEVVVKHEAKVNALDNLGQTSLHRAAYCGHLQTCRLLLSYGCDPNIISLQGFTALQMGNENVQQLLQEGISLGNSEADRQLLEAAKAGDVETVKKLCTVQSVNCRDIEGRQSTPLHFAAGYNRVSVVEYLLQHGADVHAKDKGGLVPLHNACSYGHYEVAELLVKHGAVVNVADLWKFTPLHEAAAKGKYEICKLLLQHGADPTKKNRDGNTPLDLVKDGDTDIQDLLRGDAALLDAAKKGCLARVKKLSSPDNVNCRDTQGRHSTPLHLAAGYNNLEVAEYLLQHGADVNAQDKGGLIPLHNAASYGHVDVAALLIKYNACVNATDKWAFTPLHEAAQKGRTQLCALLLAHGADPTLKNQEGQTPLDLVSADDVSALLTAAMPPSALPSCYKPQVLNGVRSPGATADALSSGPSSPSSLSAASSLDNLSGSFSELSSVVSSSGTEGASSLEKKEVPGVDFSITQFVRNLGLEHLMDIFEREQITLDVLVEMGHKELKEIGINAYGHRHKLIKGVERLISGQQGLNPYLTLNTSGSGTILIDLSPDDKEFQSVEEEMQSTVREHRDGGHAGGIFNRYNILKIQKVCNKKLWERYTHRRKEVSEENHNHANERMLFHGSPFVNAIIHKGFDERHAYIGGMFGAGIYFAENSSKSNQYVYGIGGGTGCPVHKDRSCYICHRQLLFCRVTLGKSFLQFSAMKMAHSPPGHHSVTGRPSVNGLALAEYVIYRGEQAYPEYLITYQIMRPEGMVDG

`CCOc1ccc(-c2nnc([C@H]3C[C@H](NC(=O)c4ccnc5cccnc45)C3)n2-c2ccccc2)nc1` [Example 69, N-((1r,3r)-3-(5-(5-ethoxypyridin-2-yl)-4-phenyl-4H-1,2,4-triazol-3-yl)cyclobutyl)-1,5-naphthyridine-4-carboxamide]: the IC50 worked out at 2 nM in assay [1] (setting [3]) and 0.712 nM in assay [2] (HEK293, HEK293).
Take `[2H]C([2H])([2H])C([2H])([2H])Oc1ccc(-c2nnc([C@H]3C[C@H](NC(=O)c4cccc5cc(F)cnc45)C3)n2-c2ccccc2F)nc1` [Example 141, N-((1S,3r)-3-(5-(5-(ethoxy-d5)pyridin-2-yl)-4-(2-fluorophenyl)-4H-1,2,4-triazol-3-yl)cyclobutyl)-3-fluoroquinoline-8-carboxamide]: the IC50 in assay [1] came out at 2.9 nM; in assay [2] (HEK293, HEK293), 1.1 nM.
With `CCOc1ccc(-c2nnc(C34CC(NC(=O)c5ccnc6cccnc56)(C3)C4)n2-c2cccnc2)nc1` [Example 166, N-(3-(5-(5-ethoxypyridin-2-yl)-4-(pyridin-3-yl)-4H-1,2,4-triazol-3-yl)bicyclo[1.1.1]pentan-1-yl)-1,5-naphthyridine-4-carboxamide], the figures for the IC50 in assay [1] (setting [3]) and in assay [2] (HEK293) were 9.6 nM and 30 nM, respectively.
As for `[2H]C([2H])([2H])Oc1ccc(-c2nnc([C@H]3C[C@H](NC(=O)c4ccccn4)C3)n2-c2ccccc2F)nc1` [Example 113, N-((1S,3r)-3-(4-(2-fluorophenyl)-5-(5-(methoxy-d3)pyridin-2-yl)-4H-1,2,4-triazol-3-yl)cyclobutyl)picolinamide], the IC50 in assay [1] stood at 5.6 nM; in assay [2] (HEK293, HEK293), 74 nM.
`Cc1ccc(-n2c(-c3nccs3)nnc2[C@H]2C[C@H](NC(=O)c3ccccn3)C2)s1` [Example 88, N-((1r,3r)-3-(4-(5-methylthiophen-2-yl)-5-(thiazol-2-yl)-4H-1,2,4-triazol-3-yl)cyclobutyl)picolinamide]: the IC50 in assay [1] (setting [3]) was found to be 47 nM; in assay [2] (HEK293, HEK293), 93 nM.
Consider `CCOc1ccc(-c2nnc([C@H]3C[C@H](NC(=O)c4cn(C)cn4)C3)n2-c2ccccc2F)nc1` [Example 117, N-((1S,3r)-3-(5-(5-ethoxypyridin-2-yl)-4-(2-fluorophenyl)-4H-1,2,4-triazol-3-yl)cyclobutyl)-1-methyl-1H-imidazole-4-carboxamide], for which the IC50 in assay [1] (setting [3]) amounted to 87 nM; in assay [2] (HEK293, HEK293), 550 nM.
`O=C(N[C@H]1C[C@H](c2nnc(-c3ccncn3)n2-c2ccccc2Cl)C1)c1ccccn1` [Example 10, N-((1S,3r)-3-(4-(2-chlorophenyl)-5-(pyrimidin-4-yl)-4H-1,2,4-triazol-3-yl)cyclobutyl)picolinamide]: the IC50 in assay [1] (setting [3]) is 1.5 nM; in assay [2] (HEK293), 0.2 nM.
For `O=C(N[C@H]1C[C@H](c2nnc(-c3ccncn3)n2-c2ccccc2Cl)C1)c1cccnc1` [Example 9, N-((1S,3r)-3-(4-(2-chlorophenyl)-5-(pyrimidin-4-yl)-4H-1,2,4-triazol-3-yl)cyclobutyl)nicotinamide], the IC50 in assay [1] (setting [3]) was 18 nM; in assay [2] (HEK293, HEK293) it was 50 nM.
Turning to `CCOc1ccc(-c2nnc([C@H]3C[C@H](NC(=O)c4cc(C)nc5ncnn45)C3)n2-c2ccccc2F)nc1` [Example 158, N-((1S,3r)-3-(5-(5-ethoxypyridin-2-yl)-4-(2-fluorophenyl)-4H-1,2,4-triazol-3-yl)cyclobutyl)-5-methy-[1,2,4]triazolo[1,5-a]pyrimidine-7-carboxamide], the IC50 in assay [1] (setting [3]) came out at 26 nM; in assay [2] (HEK293, HEK293) it was 44 nM.
`O=C(N[C@H]1C[C@H](c2nnc(-c3ccncn3)n2-c2ccccc2Cl)C1)c1ccncn1` [Example 11, N-((1S,3r)-3-(4-(2-chlorophenyl)-5-(pyrimidin-4-yl)-4H-1,2,4-triazol-3-yl)cyclobutyl)pyrimidine-4-carboxamide]: the IC50 in assay [1] (setting [3]) turned out to be 3.5 nM; in assay [2] (HEK293, HEK293) it was 4 nM.

One may read the IC50 as the midpoint of a concentration-inhibition curve.

The values above are taken from patent US11926614B2, “1,2,4-triazole derivatives as tankyrase inhibitors” (priority 2018, dated 2024).
